Results from patent publication US11767310B2, “Nicotinamide RIPK1 inhibitors” (AbbVie Inc., priority 2021, dated 2023).
Read-outs that look alike come from different tables or passages of the source.

How the values were obtained:
Assay in all cases: Kinase binding screen
Conditions in all cases: read-out: Percent Control at 100 nM Compound Concentration
JNK3 = JNK3 (Homo sapiens (Human), UniProt P53779)
PLK4 = PLK4 (Homo sapiens (Human), UniProt O00444)
INSR = INSR (Homo sapiens (Human), UniProt P06213)
SRPK3 = SRPK3 (Homo sapiens (Human), UniProt Q9UPE1)
SRPK3, sequence (Q9UPE1 whole entry): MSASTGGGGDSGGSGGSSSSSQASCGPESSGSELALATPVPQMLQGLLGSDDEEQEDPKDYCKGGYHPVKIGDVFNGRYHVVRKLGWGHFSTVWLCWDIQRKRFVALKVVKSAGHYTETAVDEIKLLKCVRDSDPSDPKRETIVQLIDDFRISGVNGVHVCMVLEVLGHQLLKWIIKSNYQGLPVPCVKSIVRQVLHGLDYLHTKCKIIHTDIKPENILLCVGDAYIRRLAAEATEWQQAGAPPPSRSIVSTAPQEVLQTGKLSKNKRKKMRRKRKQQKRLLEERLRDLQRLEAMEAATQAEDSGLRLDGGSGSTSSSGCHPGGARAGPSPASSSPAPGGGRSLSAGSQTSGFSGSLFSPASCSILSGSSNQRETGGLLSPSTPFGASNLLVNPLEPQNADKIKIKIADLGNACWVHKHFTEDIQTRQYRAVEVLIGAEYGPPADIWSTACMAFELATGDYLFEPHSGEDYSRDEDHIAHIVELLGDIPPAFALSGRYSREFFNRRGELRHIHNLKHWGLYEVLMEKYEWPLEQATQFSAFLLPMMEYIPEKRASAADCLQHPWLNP

PYK2 = PYK2 (Homo sapiens (Human), UniProt Q14289)
AURKC = AURKC (Homo sapiens (Human), UniProt Q9UQB9)
WEE2 = WEE2 (Homo sapiens (Human), UniProt P0C1S8)
MINK = MINK (Homo sapiens (Human), UniProt Q8N4C8)
MUSK = MUSK (Homo sapiens (Human), UniProt O15146)
[1] = target: ABL1(H396P)-phosphorylated (Homo sapiens (Human), UniProt P00519, H396P)
CAMK2G = CAMK2G (Homo sapiens (Human), UniProt Q13555)
CAMK2G, sequence (Q13555 whole entry): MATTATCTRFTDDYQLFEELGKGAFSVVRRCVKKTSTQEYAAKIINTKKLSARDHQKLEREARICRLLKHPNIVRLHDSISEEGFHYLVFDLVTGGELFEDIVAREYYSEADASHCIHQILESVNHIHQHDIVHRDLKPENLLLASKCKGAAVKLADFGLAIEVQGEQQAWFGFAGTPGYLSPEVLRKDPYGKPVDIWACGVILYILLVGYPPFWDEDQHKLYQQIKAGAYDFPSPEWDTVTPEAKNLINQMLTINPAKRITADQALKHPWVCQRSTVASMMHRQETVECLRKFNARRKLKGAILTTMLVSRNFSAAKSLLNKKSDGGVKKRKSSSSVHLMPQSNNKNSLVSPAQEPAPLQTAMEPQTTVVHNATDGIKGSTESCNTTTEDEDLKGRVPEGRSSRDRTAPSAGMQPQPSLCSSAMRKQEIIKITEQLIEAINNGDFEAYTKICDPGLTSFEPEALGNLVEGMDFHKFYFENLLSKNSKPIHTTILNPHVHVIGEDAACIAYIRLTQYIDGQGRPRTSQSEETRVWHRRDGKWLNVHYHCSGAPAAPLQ

ERBB3 = ERBB3 (Homo sapiens (Human), UniProt P21860)
CAMK1 = CAMK1 (Homo sapiens (Human), UniProt Q14012)
SLK = SLK (Homo sapiens (Human), UniProt Q9H2G2)
RIPK4 = RIPK4 (Homo sapiens (Human), UniProt P57078)
PIK3CA(I800L) = PIK3CA(I800L) (Homo sapiens (Human), UniProt P42336, I800L)
PIK3CA(I800L), sequence (P42336 whole entry I800L): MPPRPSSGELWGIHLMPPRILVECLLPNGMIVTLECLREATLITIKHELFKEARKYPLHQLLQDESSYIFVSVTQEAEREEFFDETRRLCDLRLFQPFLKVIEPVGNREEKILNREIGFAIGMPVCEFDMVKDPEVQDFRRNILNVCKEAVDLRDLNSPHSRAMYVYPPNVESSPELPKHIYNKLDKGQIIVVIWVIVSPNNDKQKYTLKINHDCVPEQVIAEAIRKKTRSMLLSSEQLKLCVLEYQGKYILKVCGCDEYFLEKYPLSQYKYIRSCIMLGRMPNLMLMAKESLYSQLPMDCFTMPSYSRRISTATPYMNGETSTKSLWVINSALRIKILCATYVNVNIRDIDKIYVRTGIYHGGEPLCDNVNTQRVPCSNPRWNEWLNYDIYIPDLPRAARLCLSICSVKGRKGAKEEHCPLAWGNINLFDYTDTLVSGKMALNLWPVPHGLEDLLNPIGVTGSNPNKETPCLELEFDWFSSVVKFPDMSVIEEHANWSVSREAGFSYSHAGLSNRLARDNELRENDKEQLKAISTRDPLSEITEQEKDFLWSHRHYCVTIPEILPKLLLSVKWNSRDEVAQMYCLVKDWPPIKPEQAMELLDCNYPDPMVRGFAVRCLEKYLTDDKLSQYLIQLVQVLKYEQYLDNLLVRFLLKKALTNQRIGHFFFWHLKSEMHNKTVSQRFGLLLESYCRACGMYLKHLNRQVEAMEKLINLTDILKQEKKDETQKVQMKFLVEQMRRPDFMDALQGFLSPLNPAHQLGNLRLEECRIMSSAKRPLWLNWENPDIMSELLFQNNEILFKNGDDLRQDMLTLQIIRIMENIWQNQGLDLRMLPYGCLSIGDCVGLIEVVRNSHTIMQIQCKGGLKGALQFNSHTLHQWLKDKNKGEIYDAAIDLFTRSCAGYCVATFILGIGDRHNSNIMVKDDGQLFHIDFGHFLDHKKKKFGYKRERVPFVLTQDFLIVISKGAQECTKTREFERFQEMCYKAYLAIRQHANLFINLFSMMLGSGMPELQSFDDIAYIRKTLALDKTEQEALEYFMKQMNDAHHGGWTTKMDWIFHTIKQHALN

NEK10 = NEK10 (Homo sapiens (Human), UniProt Q6ZWH5)
CSF1R = CSF1R (Homo sapiens (Human), UniProt P07333)
CSF1R, sequence (P07333 20-972): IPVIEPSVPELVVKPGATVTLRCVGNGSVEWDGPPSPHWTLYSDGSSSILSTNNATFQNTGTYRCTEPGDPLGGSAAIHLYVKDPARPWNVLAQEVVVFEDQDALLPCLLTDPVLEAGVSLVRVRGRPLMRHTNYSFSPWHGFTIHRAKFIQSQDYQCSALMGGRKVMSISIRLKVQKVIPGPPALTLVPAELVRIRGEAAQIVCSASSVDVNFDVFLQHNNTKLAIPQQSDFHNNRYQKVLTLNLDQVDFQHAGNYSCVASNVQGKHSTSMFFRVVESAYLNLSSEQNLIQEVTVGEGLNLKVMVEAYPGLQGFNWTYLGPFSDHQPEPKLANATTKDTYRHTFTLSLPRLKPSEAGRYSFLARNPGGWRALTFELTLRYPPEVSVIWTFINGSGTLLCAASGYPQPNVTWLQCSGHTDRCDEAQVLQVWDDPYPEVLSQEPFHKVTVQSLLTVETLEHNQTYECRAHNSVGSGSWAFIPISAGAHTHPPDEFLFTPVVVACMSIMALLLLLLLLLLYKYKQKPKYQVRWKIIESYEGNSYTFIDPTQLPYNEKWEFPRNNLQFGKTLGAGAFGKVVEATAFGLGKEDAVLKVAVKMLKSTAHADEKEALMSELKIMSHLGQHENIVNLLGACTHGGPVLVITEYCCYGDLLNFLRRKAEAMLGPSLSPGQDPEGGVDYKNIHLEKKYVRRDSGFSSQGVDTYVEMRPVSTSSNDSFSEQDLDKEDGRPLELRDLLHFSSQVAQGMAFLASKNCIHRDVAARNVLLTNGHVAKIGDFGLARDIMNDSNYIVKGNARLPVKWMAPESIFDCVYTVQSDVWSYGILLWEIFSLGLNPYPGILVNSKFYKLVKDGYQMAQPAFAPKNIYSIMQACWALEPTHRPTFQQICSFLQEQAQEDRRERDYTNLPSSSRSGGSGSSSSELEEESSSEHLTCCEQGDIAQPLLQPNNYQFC

TESK1 = TESK1 (Homo sapiens (Human), UniProt Q15569)
RIOK3 = RIOK3 (Homo sapiens (Human), UniProt O14730)
EPHA3 = EPHA3 (Homo sapiens (Human), UniProt P29320)
EPHA3, sequence (P29320 21-983): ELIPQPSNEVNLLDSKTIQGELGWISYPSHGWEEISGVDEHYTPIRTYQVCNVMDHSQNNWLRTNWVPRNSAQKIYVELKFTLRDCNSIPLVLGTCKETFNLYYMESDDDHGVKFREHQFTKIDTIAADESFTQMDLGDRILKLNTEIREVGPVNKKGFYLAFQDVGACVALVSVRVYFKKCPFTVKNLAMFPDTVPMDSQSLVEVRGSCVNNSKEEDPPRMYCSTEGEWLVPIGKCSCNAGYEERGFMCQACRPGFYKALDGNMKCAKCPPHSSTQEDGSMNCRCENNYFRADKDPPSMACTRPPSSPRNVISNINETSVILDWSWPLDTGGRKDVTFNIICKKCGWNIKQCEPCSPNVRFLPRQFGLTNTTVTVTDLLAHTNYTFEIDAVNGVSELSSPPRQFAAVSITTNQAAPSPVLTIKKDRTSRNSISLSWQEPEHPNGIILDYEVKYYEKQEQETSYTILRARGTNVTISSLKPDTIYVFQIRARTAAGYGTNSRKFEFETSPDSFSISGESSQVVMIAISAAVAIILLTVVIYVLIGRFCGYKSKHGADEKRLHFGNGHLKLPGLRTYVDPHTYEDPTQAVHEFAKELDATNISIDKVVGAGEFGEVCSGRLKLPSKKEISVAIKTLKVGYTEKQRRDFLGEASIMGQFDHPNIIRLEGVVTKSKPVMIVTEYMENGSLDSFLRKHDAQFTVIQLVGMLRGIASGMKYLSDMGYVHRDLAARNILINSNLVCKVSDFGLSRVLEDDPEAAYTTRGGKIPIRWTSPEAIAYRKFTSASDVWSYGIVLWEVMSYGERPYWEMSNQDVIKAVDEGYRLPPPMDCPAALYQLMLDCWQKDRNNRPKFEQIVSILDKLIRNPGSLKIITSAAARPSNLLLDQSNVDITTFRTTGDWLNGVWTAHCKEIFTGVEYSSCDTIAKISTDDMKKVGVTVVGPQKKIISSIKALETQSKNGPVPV

[2] = target: EGFR(L747-S752del, P753S) (Homo sapiens (Human), UniProt P00533, DEL747-752/P753S)
PIK3CA(E545K) = PIK3CA(E545K) (Homo sapiens (Human), UniProt P42336, E545K)
PDPK1 = PDPK1 (Homo sapiens (Human), UniProt O15530)
HPK1 = HPK1 (Homo sapiens (Human), UniProt Q92918)
PIK3CA(H1047Y) = PIK3CA(H1047Y) (Homo sapiens (Human), UniProt P42336, H1047Y)
[3] = target: ABL1(E255K)-phosphorylated (Homo sapiens (Human), UniProt P00519, E255K)
ADCK4 = ADCK4 (Homo sapiens (Human), UniProt Q96D53)

PLK4, sequence (O00444 whole entry): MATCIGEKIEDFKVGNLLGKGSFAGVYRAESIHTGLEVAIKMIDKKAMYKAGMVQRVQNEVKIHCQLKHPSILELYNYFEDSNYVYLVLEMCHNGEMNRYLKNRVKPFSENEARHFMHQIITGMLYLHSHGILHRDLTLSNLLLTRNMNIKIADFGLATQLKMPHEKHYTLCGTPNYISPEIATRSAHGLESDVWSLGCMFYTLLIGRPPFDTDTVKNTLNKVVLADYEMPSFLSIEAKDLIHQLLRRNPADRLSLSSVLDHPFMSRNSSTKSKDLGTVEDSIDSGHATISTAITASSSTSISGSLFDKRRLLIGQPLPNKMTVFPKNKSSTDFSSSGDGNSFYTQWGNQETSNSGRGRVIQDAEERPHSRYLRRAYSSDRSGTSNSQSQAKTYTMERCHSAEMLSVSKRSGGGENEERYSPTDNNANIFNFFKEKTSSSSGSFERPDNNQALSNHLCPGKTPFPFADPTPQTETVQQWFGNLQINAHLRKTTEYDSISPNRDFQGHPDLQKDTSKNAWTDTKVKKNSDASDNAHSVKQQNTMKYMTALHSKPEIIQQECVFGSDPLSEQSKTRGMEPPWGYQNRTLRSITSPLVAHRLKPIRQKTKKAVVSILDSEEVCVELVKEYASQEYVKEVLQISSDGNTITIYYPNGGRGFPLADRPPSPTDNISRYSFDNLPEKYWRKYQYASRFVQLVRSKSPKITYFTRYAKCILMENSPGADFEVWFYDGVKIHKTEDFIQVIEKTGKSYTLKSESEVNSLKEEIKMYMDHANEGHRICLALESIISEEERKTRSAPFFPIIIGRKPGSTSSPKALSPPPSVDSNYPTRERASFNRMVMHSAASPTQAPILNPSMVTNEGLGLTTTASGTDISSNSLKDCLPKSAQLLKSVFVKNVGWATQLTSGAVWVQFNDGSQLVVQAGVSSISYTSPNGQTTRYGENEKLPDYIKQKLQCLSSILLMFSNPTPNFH

## CN(C[C@@H](O)Cc1ccccc1)C(=O)c1cncc(C#Cc2cnn(C(F)F)c2)c1 [Example 2, (S)-5-((1-(difluoromethyl)-1H-pyrazol-4-yl)ethynyl)-N-(2-hydroxy-3-phenylpropyl)-N-methylnicotinamide]
JNK3; JNK3
  remaining activity at 0.1 µM: 83%
PLK4; PLK4
  remaining activity at 0.1 µM: 100%
INSR; INSR
  remaining activity at 0.1 µM: 100%
SRPK3; SRPK3
  remaining activity at 0.1 µM: 90%
PYK2; PYK2
  remaining activity at 0.1 µM: 100%
AURKC; AURKC
  remaining activity at 0.1 µM: 100%
WEE2; WEE2
  remaining activity at 0.1 µM: 100%
MINK; MINK
  remaining activity at 0.1 µM: 100%
MUSK; MUSK
  remaining activity at 0.1 µM: 100%
[1]; ABL1(H396P)-phosphorylated
  remaining activity at 0.1 µM: 94%
CAMK2G; CAMK2G
  remaining activity at 0.1 µM: 94%
ERBB3; ERBB3
  remaining activity at 0.1 µM: 100%
CAMK1; CAMK1
  remaining activity at 0.1 µM: 100%
SLK; SLK
  remaining activity at 0.1 µM: 99%
RIPK4; RIPK4
  remaining activity at 0.1 µM: 100%
PIK3CA(I800L); PIK3CA(I800L)
  remaining activity at 0.1 µM: 96%
NEK10; NEK10
  remaining activity at 0.1 µM: 91%
CSF1R; CSF1R
  remaining activity at 0.1 µM: 100%
TESK1; TESK1
  remaining activity at 0.1 µM: 100%
RIOK3; RIOK3
  remaining activity at 0.1 µM: 100%
EPHA3; EPHA3
  remaining activity at 0.1 µM: 100%
[2]; EGFR(L747-S752del, P753S)
  remaining activity at 0.1 µM: 100%
PIK3CA(E545K); PIK3CA(E545K)
  remaining activity at 0.1 µM: 91%
PDPK1; PDPK1
  remaining activity at 0.1 µM: 99%
HPK1; HPK1
  remaining activity at 0.1 µM: 78%
PIK3CA(H1047Y); PIK3CA(H1047Y)
  remaining activity at 0.1 µM: 71%
[3]; ABL1(E255K)-phosphorylated
  remaining activity at 0.1 µM: 86%
ADCK4; ADCK4
  remaining activity at 0.1 µM: 100%

## CN(C[C@H](Cc1ccccc1)OP(=O)(O)O)C(=O)c1cncc(C#Cc2cnn(C(F)F)c2)c1 [Example 19, (S)-1-(5-((1-(difluoromethyl)-1H-pyrazol-4-yl)ethynyl)-N-methylnicotinamido)-3-phenylpropan-2-yl dihydrogen phosphate]
JNK3
  remaining activity at 0.1 µM: 86%
PLK4
  remaining activity at 0.1 µM: 100%
INSR
  remaining activity at 0.1 µM: 100%
SRPK3
  remaining activity at 0.1 µM: 100%
PYK2
  remaining activity at 0.1 µM: 100%
AURKC
  remaining activity at 0.1 µM: 100%
WEE2
  remaining activity at 0.1 µM: 100%
MINK
  remaining activity at 0.1 µM: 100%
MUSK
  remaining activity at 0.1 µM: 100%
[1]
  remaining activity at 0.1 µM: 93%
CAMK2G
  remaining activity at 0.1 µM: 100%
ERBB3
  remaining activity at 0.1 µM: 100%
CAMK1
  remaining activity at 0.1 µM: 62%
SLK
  remaining activity at 0.1 µM: 97%
RIPK4
  remaining activity at 0.1 µM: 100%
PIK3CA(I800L)
  remaining activity at 0.1 µM: 87%
NEK10
  remaining activity at 0.1 µM: 100%
CSF1R
  remaining activity at 0.1 µM: 100%
TESK1
  remaining activity at 0.1 µM: 100%
RIOK3
  remaining activity at 0.1 µM: 100%
EPHA3
  remaining activity at 0.1 µM: 100%
[2]
  remaining activity at 0.1 µM: 97%
PIK3CA(E545K)
  remaining activity at 0.1 µM: 85%
PDPK1
  remaining activity at 0.1 µM: 100%
HPK1
  remaining activity at 0.1 µM: 92%
PIK3CA(H1047Y)
  remaining activity at 0.1 µM: 72%
[3]
  remaining activity at 0.1 µM: 91%
ADCK4
  remaining activity at 0.1 µM: 100%
